According to BigSolDB 2.1:

COc1cc(/C=C/C(=O)CC(=O)/C=C/c2ccc(O)c(OC)c2)ccc1O
solubility (mole fraction)
Settings | 278.15 K | 283.15 K | 288.15 K | 293.15 K | 298.15 K | 303.15 K | 308.15 K | 313.15 K | 318.15 K | 323.15 K
in DMSO | 0.137 | 0.16 | 0.184 | 0.211 | 0.24 | 0.271 | 0.303 | 0.338 | 0.375 | 0.413
in THF | 0.113 | 0.134 | 0.157 | 0.183 | 0.211 | 0.239 | 0.27 | 0.302 | 0.336 | 0.371
in acetone | 0.00834 | 0.00986 | 0.0118 | 0.0138 | 0.0162 | 0.0189 | 0.022 | 0.0257 | 0.0298 | 0.0345
in acetonitrile | 0.00071 | 0.00083 | 0.00097 | 0.00113 | 0.00129 | 0.00149 | 0.00169 | 0.00194 | 0.00221 | 0.00253
in ethanol | 0.00041 | 0.00048 | 0.00056 | 0.00065 | 0.00075 | 0.00086 | 0.00098 | 0.00111 | 0.00127 | 0.00145
in ethyl acetate | 0.00176 | 0.00199 | 0.00227 | 0.00253 | 0.00285 | 0.00319 | 0.00357 | 0.00399 | 0.00447 | 0.00501
